Laboratory results from US10168342B2, “Lipid probes and uses thereof” (THE SCRIPPS RESEARCH INSTITUTE, priority 2015, dated 2019).

Assays:
human NUCB1 = biological target: T1, human NUCB1 (Homo sapiens, UniProt Q02818); test: FluoPol assay / high throughput screen with Fl-AEA and recombinant NUCB1; type: binding; conditions: competitor lipids, recombinant NUCB1
T1 construct: made in house; host or cells: Escherichia coli BL21(DE3)
T1 sequence (Q02818 27-461): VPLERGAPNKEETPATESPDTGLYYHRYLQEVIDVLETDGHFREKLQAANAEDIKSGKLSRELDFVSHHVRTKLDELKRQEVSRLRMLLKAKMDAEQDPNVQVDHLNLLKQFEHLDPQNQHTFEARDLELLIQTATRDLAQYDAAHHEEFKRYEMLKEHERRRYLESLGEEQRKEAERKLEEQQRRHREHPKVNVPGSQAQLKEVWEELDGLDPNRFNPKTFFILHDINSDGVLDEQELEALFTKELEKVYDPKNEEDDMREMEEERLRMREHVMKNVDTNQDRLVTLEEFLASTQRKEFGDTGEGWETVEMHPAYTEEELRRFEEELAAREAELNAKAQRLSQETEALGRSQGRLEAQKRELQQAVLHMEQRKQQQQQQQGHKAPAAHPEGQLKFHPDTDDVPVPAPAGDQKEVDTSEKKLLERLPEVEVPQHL
Procedure: FluoPol conditions were optimized by screening various concentrations of Fl-AEA, hNUCB1, CaCl2 and Pluronic F-127 against positive and negative controls. Arachidonic acid (20 μM final) was used as a positive control, and DMSO as a negative. Additionally, protein-free controls were used to normalize for background signal. […] The Z′-factor for these conditions was determined to be 0.54, indicating a high signal to noise assay.
A 10 μL solution of hNUCB1 (1 μM), Fl-AEA (0.5 μM), CaCl2 (20 μM), and Pluronic F-127 (0.01%) was added to a Greiner 384-well plate. Additionally, in some wells protein was omitted to serve as a blank control for background signal. To the protein containing wells 16,000 compounds (50 nL in DMSO, 2 mM) from the Maybridge Hitfinder library were added by a pin-tool robot. Additionally, on each plate to some wells arachidonic acid (20 μM final) or DMSO were added as positive and negative controls to allow normalization between plates. The plates were allowed to incubate for 5 minutes at room temperature, then fluorescence polarization was measured by measuring fluorescence intensity through polarized 595 nm filters. Hits were selected based on maximal probe competition.

[1] = test system: PGF2α-EA formation in PMA-stimulated A549 cells; test: Oxidative metabolism of AEA in A549 cells (prostamide formation); type: cell-based, human; conditions: MJN228, KML110 5 and 25 μM, others 25 μM, AEA 20 μM
Procedure: The media from the PMA-stimulated cells was removed and cells were washed with DPBS (2×3 mL) before adding freshly prepared media solutions containing vehicle or compound (2 mL/plate). After incubating for 30 min at 37° C., a solution of BHT-stabilized AEA (60 μM AEA; 60 μM BHT) in the same media was added to the cells (1.0 mL/plate) and incubated for 1 h. The media from the cells was then transferred to glass vials containing MS internal standards [PGE2-EA-d4 (25 pmol)], centrifuged (1,500×g, 5 min) to remove detached cells and then loaded onto pre-equilibrated reversed phase SPE cartridges (Phenomenex, Strata-X 33 μm, 60 mg/3 mL). After washing cartridges with 5% MeOH/H2O (3 mL), prostamides were eluted with MeOH (1.0 mL) and the eluent was concentrated under a stream of N2. Concentrated samples were stored at −80° C. until the day of analysis when they were reconstituted in Mobile Phase A [100 μL, 30% CH3CN in H2O (0.1% AcOH, 5.0 mM NH4OAc)].
Media extracts were analyzed by LC/MS/MS with LC separation performed on a Kinetex reversed phase C18 column (50×4.6 mm, 2.6 μm particle size, 100Å). Mobile phase A was composed of 30% (v/v) CH3CN in H2O and Mobile phase B was composed of 50% (v/v) CH3CN in i-PrOH. Both mobile phases also contained 0.1% AcOH and NH4OAc (5 mM) to facilitate ionization and LC separation. […]
MS analysis of prostamides was performed on an Agilent 6460 Triple Quadrupole LC/MS System with operating conditions as follows: gas temperature (300° C.); gas flow (9 L·min^−1); nebulizer (45 psi); sheath gas temperature (300° C.); sheath gas flow (12 L·min^−1); positive and negative capillary voltage (3.5 kV). Analysis was achieved using multiple reaction monitoring with precursor to product ion transitions, optimized collision energies (CE) as listed below and prostamide quantification was achieved by normalized of analyte peaks relative to a deuterated prostamide internal standard (PGE2-EA-d4) to account for differences in extraction efficiency. […]

[2] = biological target: A-DA lipid probe targets in A549 cells (Homo sapiens, UniProt Q5HYK3); test: In situ competitive SILAC profiling with A-DA probe in (PMA-stimulated) A549 cells; conditions: A549 cells, A-DA probe
Chain of A-DA lipid probe targets in A549 cells (Q5HYK3 43-327): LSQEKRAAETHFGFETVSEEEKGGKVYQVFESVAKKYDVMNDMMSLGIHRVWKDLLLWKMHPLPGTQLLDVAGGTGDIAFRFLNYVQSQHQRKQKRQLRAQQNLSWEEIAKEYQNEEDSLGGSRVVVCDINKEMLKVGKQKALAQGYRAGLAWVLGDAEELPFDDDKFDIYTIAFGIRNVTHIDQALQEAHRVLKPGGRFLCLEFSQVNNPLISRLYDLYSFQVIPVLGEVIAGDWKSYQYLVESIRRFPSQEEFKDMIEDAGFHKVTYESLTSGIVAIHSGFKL

CCCCC/C=C\C/C=C\C/C=C\C/C=C\CCCC(=O)NCCO [AEA, anandamide, reference compound]
suppression of the NUCB1-FluoPol signal (blockade of Fl-AEA binding) (human NUCB1): Concentration-dependent suppression

CN1CCN(C(=O)c2c(-c3ccccc3)c3cc([N+](=O)[O-])ccc3n2C)CC1 [KML110, (1-Methyl-5-nitro-3-phenyl-1H-indol-2-yl)(4-methylpiperazin-1-yl)methanone]
conversion of exogenous AEA to PGF2α-EA [1]: suppress

CN1CCN(C(=O)c2[nH]c3ccc([N+](=O)[O-])cc3c2-c2ccccc2)CC1 [MJN228, (4-Methylpiperazin-1-yl)(5-nitro-3-phenyl-1H-indol-2-yl)methanone]
conversion of exogenous AEA to PGF2α-EA [1]: suppress

C=CCN(C)CCCCCCOc1ccc(C(=O)c2ccc(Br)cc2)c(F)c1 [Ro488071]
SILAC ratio, COQ5 (Q5HYK3) ([2]; competitor 5 μM): 2.0
SILAC ratio, COQ5 (Q5HYK3) ([2]; competitor 50 μM): 3.4
